Columns and labels:
[1] = target: T1, CRAF (Homo sapiens, UniProt P04049); test: Enzymatic activity (IC50) on CRAF; assay type: biochemical; conditions: for IC50: enzymatic activity
Method: (§1) The IC50 values for BRAFV600E and CRAF were measured for each of the 12 compounds synthesised (Table 1). The compounds were all designed as 1, 3, 5-substituted benzyl group hydrophobic tails to maintain the selectivity of the previous series.

[2] = target: T2, BRAFV600E (Homo sapiens, UniProt P15056, V600E); test: Enzymatic activity (IC50) on BRAFV600E; assay type: biochemical; conditions: for IC50: enzymatic activity; for times more potent for BRAFV600E than the previous series: versus N-(3-(3-alkyl-1H-pyrazol-5-yl)phenyl)-aryl amide derivatives
T2 sequence (P15056 whole entry V600E): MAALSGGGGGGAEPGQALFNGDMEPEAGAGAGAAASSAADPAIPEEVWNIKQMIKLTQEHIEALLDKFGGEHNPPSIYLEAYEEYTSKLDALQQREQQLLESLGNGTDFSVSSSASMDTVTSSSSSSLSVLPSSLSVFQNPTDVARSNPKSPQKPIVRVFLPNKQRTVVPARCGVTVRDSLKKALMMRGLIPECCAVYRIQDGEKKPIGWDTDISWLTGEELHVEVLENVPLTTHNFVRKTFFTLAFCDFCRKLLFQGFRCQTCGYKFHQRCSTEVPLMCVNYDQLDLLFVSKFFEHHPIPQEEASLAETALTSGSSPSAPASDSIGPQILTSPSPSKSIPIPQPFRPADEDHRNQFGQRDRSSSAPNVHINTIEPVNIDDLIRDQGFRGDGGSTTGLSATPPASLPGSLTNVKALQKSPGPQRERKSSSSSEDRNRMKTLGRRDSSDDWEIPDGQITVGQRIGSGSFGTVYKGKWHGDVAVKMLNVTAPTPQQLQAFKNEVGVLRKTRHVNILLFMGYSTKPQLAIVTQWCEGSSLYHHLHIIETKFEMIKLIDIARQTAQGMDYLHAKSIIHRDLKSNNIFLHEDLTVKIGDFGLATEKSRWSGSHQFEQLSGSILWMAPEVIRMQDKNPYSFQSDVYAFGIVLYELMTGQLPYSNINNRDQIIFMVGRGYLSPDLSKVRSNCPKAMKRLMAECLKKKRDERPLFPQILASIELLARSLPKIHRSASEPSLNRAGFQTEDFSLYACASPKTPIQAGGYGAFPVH
Method: as §1

[3] = target: BRAFWT (Homo sapiens, UniProt P15056); test: Enzymatic activity (IC50) on BRAFWT; assay type: biochemical
Sequence of BRAFWT (P15056 whole entry): as the sequence (P15056 whole entry V600E) above, with E600V counted along it
Method: (§2) Next, we used kinase panel screening in duplicate for compound 23b over 35 different kinases at a single-dose concentration of 10 μM (Table 2). The compound was indeed a selective BRAFV600E and CRAF inhibitor with an excellent selectivity profile. This compound has an inhibitory activity of more than 90% on CRAF and BRAF V600E at a concentration of 10 μM; the inhibition activity was less than 20% for most other kinases, including wild-type BRAF. We further determined the IC50 value of 23b on wild-type BRAF to be over than 20 μM, where we could confirm selectivity (Table 3). In order to investigate the effect of 23b in living cells, the human colon cancer cell line […] expressing wild-type BRAF and the malignant melanoma A375 cell line expressing BRAFV600E were treated with increasing concentrations of 23b.

[4] = target: T1, CRAF; conditions: selectivity over BRAFWT; cited from earlier work
[5] = target: T2, BRAFV600E; conditions: selectivity over BRAFWT; cited from earlier work
[6] = system: 35 different kinases; test: Kinase panel screening, single dose 10 μM, other kinases of the panel; assay type: biochemical; conditions: in duplicate, most other kinases of the 35-kinase panel
Method: as §2
(§3) We designed and synthesized selective, efficacious inhibitors for BRAFV600E and CRAF by in silico modeling using the Maestro programme.[20] […] We attempted kinase panel screening for compound 23b over 35 different kinases at a single-dose concentration of 10 μM (Table 2, performed in duplicate). The compound was, indeed, a selective BRAFV600E and CRAF inhibitor with an excellent selectivity profile. This compound has an inhibitory activity of 99% on BRAF V600E and CRAF at this concentration. The inhibition activity was less than 20% in most other kinases, including BRAFWT.

[7] = system: human colon cancer cell line SW620 expressing wild-type BRAF; test: MTT assay, SW620 cells; assay type: cell-based
Method: as §2

[8] = target: T1, CRAF; test: Kinase panel screening, single dose 10 μM, CRAF; assay type: biochemical; conditions: in duplicate, read-out: inhibitory activity on CRAF
Method: as §2, §3

[9] = system: malignant melanoma A375 cell line expressing BRAFV600E; test: MTT assay, A375 cells; assay type: cell-based; conditions: Homo sapiens, A-375
Method: as §2

[10] = target: T2, BRAFV600E; test: Kinase panel screening, single dose 10 μM, BRAF V600E; assay type: biochemical; conditions: in duplicate, read-out: inhibitory activity on BRAF V600E
Method: as §2, §3

[11] = target: wild-type BRAF (Homo sapiens, UniProt P15056); test: Kinase panel screening, single dose 10 μM, wild-type BRAF; assay type: biochemical; conditions: in duplicate
Sequence of wild-type BRAF (P15056 whole entry): as the sequence (P15056 whole entry V600E) above, with E600V counted along it
Method: as §2, §3

T1 sequence (P04049 whole entry): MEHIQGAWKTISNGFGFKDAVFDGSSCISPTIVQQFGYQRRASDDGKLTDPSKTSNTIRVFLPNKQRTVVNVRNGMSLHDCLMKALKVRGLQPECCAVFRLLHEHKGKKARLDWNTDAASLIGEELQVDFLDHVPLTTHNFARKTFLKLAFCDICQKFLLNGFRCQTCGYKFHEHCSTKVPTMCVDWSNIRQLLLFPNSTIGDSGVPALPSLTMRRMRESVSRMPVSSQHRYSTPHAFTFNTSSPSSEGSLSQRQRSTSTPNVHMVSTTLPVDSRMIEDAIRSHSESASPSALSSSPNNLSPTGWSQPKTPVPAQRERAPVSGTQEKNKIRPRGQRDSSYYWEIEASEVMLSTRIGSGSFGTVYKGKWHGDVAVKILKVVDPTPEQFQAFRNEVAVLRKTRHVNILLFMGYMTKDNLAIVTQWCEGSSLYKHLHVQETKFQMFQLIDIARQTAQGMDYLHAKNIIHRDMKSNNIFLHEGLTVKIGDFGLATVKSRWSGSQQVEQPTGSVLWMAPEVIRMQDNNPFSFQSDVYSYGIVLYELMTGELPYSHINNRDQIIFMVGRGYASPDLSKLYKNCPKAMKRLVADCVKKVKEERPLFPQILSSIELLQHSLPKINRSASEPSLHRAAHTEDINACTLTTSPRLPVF

O=C(Nc1cccc(-c2cc(C(=O)NCCN3CCNCC3)[nH]n2)c1)c1cc(N2CCOCC2)cc(C(F)(F)F)c1 [Compound 22a]
IC50 [1]: 1600 nM | IC50 [2]: 2090 nM | IC50 [3]: > 20000 nM

Cc1nccn1-c1cc(C(=O)Nc2cccc(-c3cc(C(=O)NCCN4CCNCC4)[nH]n3)c2)cc(C(F)(F)F)c1 [Compound 22b]
IC50 [1]: 830 nM | IC50 [2]: 1260 nM | IC50 [3]: 12900 nM

O=C(Nc1cccc(-c2cc(C(=O)NCCN3CCOCC3)[nH]n2)c1)c1cc(N2CCOCC2)cc(C(F)(F)F)c1 [Compound 20a]
IC50 [1]: 1500 nM | IC50 [2]: 2800 nM | IC50 [3]: 16400 nM

CN1CCN(c2cc(C(=O)Nc3cccc(-c4cc(C(=O)NCCN5CCOCC5)[nH]n4)c3)cc(C(F)(F)F)c2)CC1 [Compound 20d]
IC50 [1]: 1150 nM | IC50 [2]: 2700 nM | IC50 [3]: > 20000 nM

CC(C)c1cc(-c2cccc(NC(=O)c3cc(N4CCN(C)CC4)cc(C(F)(F)F)c3)c2)[nH]n1 [Compound 2, N-(3–(3-alkyl-1H-pyrazol-5-yl)phenyl)-aryl amide]
times more potent on CRAF than on BRAFWT [4]: 126 times | times more potent on BRAFV600E than on BRAFWT [5]: 20 times

CN1CCN(c2cc(C(=O)Nc3cccc(-c4cc(C(=O)OCCN5CCOCC5)[nH]n4)c3)cc(C(F)(F)F)c2)CC1 [Compound 23d]
IC50 [1]: 160 nM | IC50 [2]: 680 nM | IC50 [3]: > 20000 nM

Cc1cn(-c2cc(C(=O)Nc3cccc(-c4cc(C(=O)NCCN5CCNCC5)[nH]n4)c3)cc(C(F)(F)F)c2)cn1 [Compound 22c]
IC50 [1]: 580 nM | IC50 [2]: 1510 nM

Cc1nccn1-c1cc(C(=O)Nc2cccc(-c3cc(C(=O)NCCN4CCOCC4)[nH]n3)c2)cc(C(F)(F)F)c1 [Compound 20b]
IC50 [1]: 590 nM | IC50 [2]: 980 nM | IC50 [3]: 13100 nM

O=C(Nc1cccc(-c2cc(C(=O)OCCN3CCOCC3)[nH]n2)c1)c1cc(N2CCOCC2)cc(C(F)(F)F)c1 [Compound 23a]
IC50 [1]: 130 nM | IC50 [2]: 680 nM | IC50 [3]: > 20000 nM

O=C(Nc1cccc(-c2cc(C(=O)OCCN3CCCCC3)[nH]n2)c1)c1cc(N2CCOCC2)cc(C(F)(F)F)c1 [Compound 24]
IC50 [1]: 210 nM | IC50 [2]: 400 nM | IC50 [3]: > 20000 nM

Cc1cn(-c2cc(C(=O)Nc3cccc(-c4cc(C(=O)NCCN5CCOCC5)[nH]n4)c3)cc(C(F)(F)F)c2)cn1 [Compound 20c]
IC50 [1]: 580 nM | IC50 [2]: 910 nM | IC50 [3]: 14700 nM

Cc1cn(-c2cc(C(=O)Nc3cccc(-c4cc(C(=O)OCCN5CCOCC5)[nH]n4)c3)cc(C(F)(F)F)c2)cn1 [Compound 23c]
IC50 [1]: 60 nM | IC50 [2]: 330 nM | IC50 [3]: > 20000 nM

Cc1nccn1-c1cc(C(=O)Nc2cccc(-c3cc(C(=O)OCCN4CCOCC4)[nH]n3)c2)cc(C(F)(F)F)c1 [Compound 23b]
IC50 [1]: 20 nM | times more potent for CRAF than the previous series ([1]; versus N-(3-(3-alkyl-1H-pyrazol-5-yl)phenyl)-aryl amide derivatives): 5 times | inhibition activity for most other kinases [6]: less than 20% | GI50 ([7]; Homo sapiens, SW-620, SW620 cells expressing BRAFWT): > 10000 nM | inhibition of the proliferation ([7]; increasing concentrations, SW620 cells expressing BRAFWT): not in the cells expressing BRAFWT | inhibition at 10 µM [8]: > 90% | IC50 [2]: 100 nM | times more potent for BRAFV600E than the previous series [2]: 7 times | times more potent for BRAFV600E than the previous series ([2]; listed as 23 b): seven | GI50 [9]: 70 nM | IC50 [3]: > 20000 nM | inhibition at 10 µM [10]: > 90% | inhibition at 10 µM [11]: < 20%

Reference: PMC6691785, “Computer-aided design and synthesis of 3-carbonyl-5-phenyl-1H-pyrazole as highly selective and potent BRAFV600E and CRAF inhibitor” (Journal of Enzyme Inhibition and Medicinal Chemistry, 2019)
